Like-named read-outs stand apart in the source and are kept apart here.
What was measured:
[1] = target: T1, topoisomerase IV from E. coli (Escherichia coli, UniProt P0AFI2+P20083); assay: Topoisomerase IV decatenation inhibition assay; format: biochemical; conditions: 1× MIC
T1 construct: purchased ProFoldin (Worcester, MA)
Method: E. coli topoisomerase enzymes (II and IV) were supplied by ProFoldin (Worcester, MA), and assays were performed according to the manufacturer’s instructions. Briefly, the DNA supercoiling assay was conducted in a volume of 40 μl containing 24 μl of H2O, 4 μl of 10× buffer, 4 μl of 10× relaxed DNA, 4 μl of 10× enzyme, and 4 μl of 10 mM adenosine triphosphate (ATP). Following a 60-min incubation at room temperature, 200 μl of H2O was added to each reaction mixture. Topoisomerase IV decatenation inhibition assay was conducted in a volume of 50 μl containing 38.5 μl of H2O, 5 μl of 10× buffer, 5 μl of 10× concatenated DNA, 0.5 μl of 100× enzyme, and 1 μl of 10 mM ATP. After 60 min of incubation at 37°C, 5 μl of 0.4 M EDTA was added to stop the reaction. […]
In the supercoiling inhibition assay, the fluorescence intensity was measured using freshly prepared 1× H19 dye, which was prepared by diluting 100× H19 dye with 10 mM tris-HCl and 10 mM NaCl (pH 7.0). […] In the decatenation inhibition assay, the change in fluorescence intensity was monitored using the 1× fluorescence dye after diluting the 20× dye with water. The reaction solution eluted from the column was mixed with 150 μl of 1× fluorescence dye. The fluorescence intensity for both assays was lastly detected at 535 nm using an excitation wavelength of 485 nm. […]

[2] = Plasma pharmacokinetic study; format: in vivo, CD-1 mice; conditions: for Mean plasma concentration: LLOQ=10 ng/mL; for bioavailability: dose-normalised AUCINF, read-out: bioavailability (F)
Method: Mouse plasma PK studies were performed at Shanghai Ruizhi Chemical Research Co. Ltd. All experiments related to animals were conducted in compliance with the ethical guidelines approved by the Institutional Animal Care and Use Committee (IACUC) of the Shanghai Ruizhi Chemical Research Co. Ltd. Male CD-1 mice (6 to 8 weeks) were treated with the corresponding dose of drugs formulated in 5% glucose solution (D5W) delivered via intravenous injection via tail vein, intraperitoneal injection, or subcutaneous injection. Following administration, approximately 110 μl of blood was taken via facial vein […] at 0.083, 0.25, 0.5, 1, 2, 4, 8, and 24 hours into K2EDTA tubes. Blood samples were placed on ice and centrifuged to obtain plasma samples (2000g, 5 min under 4°C). Plasma samples were stored at approximately −70°C until analysis. The XT17 concentration in plasma PK studies was measured by liquid chromatography–tandem mass spectrometry (LC-MS/MS) assay using an LC-MS/MS-22 (Triple Quad 6500) instrument. Plasma concentrations versus time data and PK parameters were estimated from noncompartmental analysis using WinNonlin 8.2.

[3] = test system: E. coli ATCC 25922; assay: DiSC3(5) membrane depolarization assay; format: cell-based, Escherichia coli; conditions: 1× to 8× MIC
Method: The DiSC3(5) assay was carried out to investigate the cytoplasmic membrane depolarization. Mid-log phase bacteria culture was centrifuged and resuspended in sterile Hepes buffer [5 mM (pH 7.4)] to adjust the concentration of bacterial cells to obtain OD600 of 0.1. The bacterial suspension was then incubated with 2 μM DiSC3(5) for 1 hour without being exposed to the light. The change in fluorescence intensity was monitored by a BioTek multidetector microplate reader with an excitation wavelength of 622 nm and an emission wavelength of 670 nm. […] All measurements were repeated three times with duplicates each time.

[4] = test system: S. aureus ATCC 29213; assay: Serial passage resistance induction; format: cell-based, Staphylococcus aureus; conditions: 20-day passages at 0.5× MIC
Method: The bacteria were grown in a medium containing 0.5× MIC of each compound to prepare the bacterial suspension for the next MIC determination. The MICs were then recorded after incubation at 37°C for 24 hours. Daily passages were continued until the initial MIC increased by more than fourfold. The stability of acquired resistance was investigated by MIC determination and repeated for 20 days.

[5] = male, CD-1, mouse, plasma, ip, 20 mg/kg, ip 20 mg/kg
[6] = male, CD-1, mouse, plasma, iv, 5 mg/kg, IV 5 mg/kg
[7] = male, CD-1, mouse, plasma, sc, 40 mg/kg, sc 40 mg/kg
[8] = male, CD-1, mouse, plasma, IP 20 mg/kg
[9] = male, CD-1, mouse, plasma, IV 5 mg/kg
[10] = male, CD-1, mouse, plasma, SC 40 mg/kg

T1 sequence (P20083 whole entry): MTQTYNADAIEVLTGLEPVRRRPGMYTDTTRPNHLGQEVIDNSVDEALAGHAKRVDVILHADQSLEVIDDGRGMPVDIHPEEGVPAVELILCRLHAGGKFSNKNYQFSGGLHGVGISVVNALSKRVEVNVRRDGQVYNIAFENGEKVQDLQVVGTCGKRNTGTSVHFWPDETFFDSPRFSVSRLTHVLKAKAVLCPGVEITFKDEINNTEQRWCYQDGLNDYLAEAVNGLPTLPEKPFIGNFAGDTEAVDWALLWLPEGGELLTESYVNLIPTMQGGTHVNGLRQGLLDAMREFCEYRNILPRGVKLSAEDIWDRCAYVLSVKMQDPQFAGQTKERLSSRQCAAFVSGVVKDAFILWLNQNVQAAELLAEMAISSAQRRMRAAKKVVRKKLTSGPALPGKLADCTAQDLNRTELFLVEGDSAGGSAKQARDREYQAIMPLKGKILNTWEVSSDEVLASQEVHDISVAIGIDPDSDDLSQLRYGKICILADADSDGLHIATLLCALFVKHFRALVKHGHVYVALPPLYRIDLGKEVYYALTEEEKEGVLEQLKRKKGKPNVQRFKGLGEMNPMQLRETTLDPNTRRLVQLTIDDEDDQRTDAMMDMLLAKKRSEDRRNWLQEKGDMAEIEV
T1 sequence (P0AFI2 whole entry): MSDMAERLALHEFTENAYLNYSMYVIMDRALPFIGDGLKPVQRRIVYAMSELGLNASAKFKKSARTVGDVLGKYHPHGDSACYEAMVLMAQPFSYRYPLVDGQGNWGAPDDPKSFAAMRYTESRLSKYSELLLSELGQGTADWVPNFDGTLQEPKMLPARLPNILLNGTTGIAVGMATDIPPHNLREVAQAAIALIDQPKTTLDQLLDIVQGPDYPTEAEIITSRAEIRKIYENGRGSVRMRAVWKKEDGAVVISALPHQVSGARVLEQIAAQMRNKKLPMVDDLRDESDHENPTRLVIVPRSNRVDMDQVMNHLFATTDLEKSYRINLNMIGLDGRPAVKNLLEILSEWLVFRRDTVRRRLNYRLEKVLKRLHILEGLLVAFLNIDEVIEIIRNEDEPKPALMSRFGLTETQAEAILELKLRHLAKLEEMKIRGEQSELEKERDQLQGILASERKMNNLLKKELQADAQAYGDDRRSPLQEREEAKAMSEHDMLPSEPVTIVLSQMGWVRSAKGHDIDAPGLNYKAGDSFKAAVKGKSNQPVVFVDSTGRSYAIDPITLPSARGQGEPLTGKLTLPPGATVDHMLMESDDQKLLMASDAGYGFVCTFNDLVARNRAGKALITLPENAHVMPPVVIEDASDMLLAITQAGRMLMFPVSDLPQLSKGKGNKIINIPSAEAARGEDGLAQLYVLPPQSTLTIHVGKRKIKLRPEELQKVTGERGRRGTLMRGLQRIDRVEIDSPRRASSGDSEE

SMILES: CC(C)=CCOc1cc(OCCCNC(=N)N)cc2oc3cc(OCCCNC(=N)N)ccc3c(=O)c12 [XT17]
- Inhibition of topoisomerase IV (%) [1]: 36.93%
- MRTIast ([2]; IP 20 mg/kg): 1.08 h
- Mean plasma concentration ([2]; IP 20 mg/kg, 24 hr): BQL
- Mean plasma concentration ([2]; IV 5 mg/kg, 8 hr): BQL
- Mean plasma concentration ([2]; IV 5 mg/kg, 24 hr): BQL
- MRTIast ([2]; SC 40 mg/kg): 5.54 h
- time blood concentrations maintained above MICs ([2]; iv single dose 5 mg/kg): more than 4 hours
- bioavailability ([2]; male, CD-1, mouse, plasma, intraperitoneal, ip 20 mg/kg vs iv 5 mg/kg): 69.7%
- Cmax ([2]; male, CD-1, mouse, plasma, ip, 20 mg/kg, IP 20 mg/kg): 18400 ng/mL
- Cmax [2, 5]: 18400 ng/mL
- half-life [2, 5]: 61.2 min
- clearance [2, 6]: 9.68 mL/min/kg
- half-life [2, 6]: 28.7 min
- half-life ([2]; male, CD-1, mouse, plasma, iv, 5 mg/kg, iv 5 mg/kg): 28.8 min
- Cmax ([2]; male, CD-1, mouse, plasma, iv, 5 mg/kg, iv 5 mg/kg, for bolus iv Cmax = C0): 20300 ng/mL
- Cmax ([2]; male, CD-1, mouse, plasma, sc, 40 mg/kg, SC 40 mg/kg): 8680 ng/mL
- Cmax [2, 7]: 8680 ng/mL
- half-life [2, 7]: 281 min
- bioavailability ([2]; male, CD-1, mouse, plasma, subcutaneous, sc 40 mg/kg vs iv 5 mg/kg): 87.3%
- AUC(0-inf) [2, 8]: 24000 ng·h/mL
- AUC(0-t) [2, 8]: 23900 ng·h/mL
- MRT inf [2, 8]: 1.13 h
- Tmax [2, 8]: 15 min
- concentration at 0.083 h [2, 8]: 17500 ng/mL
- concentration at 0.25 h [2, 8]: 18400 ng/mL
- concentration at 0.5 h [2, 8]: 14100 ng/mL
- concentration at 1 h [2, 8]: 9190 ng/mL
- concentration at 2 h [2, 8]: 2770 ng/mL
- concentration at 4 h [2, 8]: 452 ng/mL
- concentration at 8 h ([2]; male, CD-1, mouse, plasma, IP 20 mg/kg, 8 hr): 90.1 ng/mL
- AUC(0-inf) [2, 9]: 8610 ng·h/mL
- AUC(0-t) [2, 9]: 8590 ng·h/mL
- MRT inf [2, 9]: 0.42 h
- MRT last [2, 9]: 24.7 min
- concentration at 0.083 h [2, 9]: 20300 ng/mL
- concentration at 0.25 h [2, 9]: 7360 ng/mL
- concentration at 0.5 h [2, 9]: 3630 ng/mL
- concentration at 1 h [2, 9]: 1770 ng/mL
- concentration at 2 h [2, 9]: 282 ng/mL
- concentration at 4 h [2, 9]: 23.3 ng/mL
- Vd ([2]; male, CD-1, mouse, plasma, IV 5 mg/kg, read-out: Vss): 0.244 L/kg
- AUC(0-inf) [2, 10]: 60100 ng·h/mL
- AUC(0-t) [2, 10]: 58800 ng·h/mL
- MRT inf [2, 10]: 6.07 h
- Tmax [2, 10]: 60 min
- concentration at 0.083 h [2, 10]: 7730 ng/mL
- concentration at 0.25 h [2, 10]: 6690 ng/mL
- concentration at 0.5 h [2, 10]: 7340 ng/mL
- concentration at 1 h [2, 10]: 8680 ng/mL
- concentration at 2 h [2, 10]: 4620 ng/mL
- concentration at 4 h [2, 10]: 3560 ng/mL
- concentration at 8 h ([2]; male, CD-1, mouse, plasma, SC 40 mg/kg, 8 hr): 2810 ng/mL
- concentration at 24 h ([2]; male, CD-1, mouse, plasma, SC 40 mg/kg, 24 hr): 188 ng/mL
- time blood concentrations maintained above MICs ([2]; sc single dose 40 mg/kg): more than 8 hours
- DiSC3(5) fluorescence intensity (membrane depolarization) [3]: no changes in fluorescence intensity
- increase in MIC values during passages [4]: no more than fourfold increase

Source: PMC11881906, “Development of xanthone derivatives as effective broad-spectrum antimicrobials: Disrupting cell wall and inhibiting DNA synthesis” (Science Advances, 2025)
